Experimental data published in patent US11952611B2, “Methods and systems for detection of antibiotic resistance” (Laboratory Corporation of America Holdings, priority 2017, dated 2024).

System: BAA-1720 MRSA
Assay: MRSA detection from BD BBL CultureSwabs (Table 4)
Type: cell-based, Staphylococcus aureus
Procedure: Bacterial strains were serially diluted and BD BBL CultureSwabs™ were inoculated with 50 ul of LB with approximately the target number of cells of 1000 CFU, 500 CFU, 250 CFU, 125 CFU, 63 CFU, 31 CFU, 16 CFU, or 8 CFU. Swabs were eluted with 1 mL modified Amies solution (included with commercially available Copan e-Swabs™). 135 μL of the eluted solution was added to each well. 15 μL of cefoxitin was added to the wells to reach a final concentration of 1.8 μg/mL, 3.6 μg/mL, or 5.4 μg/mL. The plate was then sealed and incubated at 37° C. for 2 hours. 10 μL of recombinant phage (1.6×10^8 pfu/mL) was added to each well. The plate was then re-sealed and incubated at 37° C. for an additional 2 hours. A master mix was made containing 15 μL 5× lysis buffer, 50 μL luciferase assay buffer, and 1 μL luciferase substrate per well. 65 μL of master mix was added to each well. Luminescence from the reactions were read on a GLOMAX® Navigator and relative luminal units (RLU) for each reaction were plotted and analyzed. RLU values three times greater than an established background RLU level for modified Amies solution (>1500 RLU) were considered positive. The results, shown in Table 4, indicate that a positive MRSA determination was made with 23 CFU in a well, originating from approximately 125 CFU on a swab when incubated with the previously established cut-off of 1.8 μg/mL. Positive results are highlighted in grey.

[1] = target swab CFU 8, detected CFU 3
[2] = target swab CFU 16, detected CFU 1
[3] = target swab CFU 31, detected CFU 4
[4] = target swab CFU 63, detected CFU 5
[5] = target swab CFU 125, detected CFU 23
[6] = target swab CFU 250, detected CFU 28
[7] = target swab CFU 500, detected CFU 31
[8] = target swab CFU 1000, detected CFU 76

CO[C@@]1(NC(=O)Cc2cccs2)C(=O)N2C(C(=O)O)=C(COC(N)=O)CS[C@@H]21 [Cefoxitin, cefoxitin]
Cefoxitin (RLU) 1.8 ug/mL [1]: 615 RLU | Cefoxitin (RLU) 3.6 ug/mL [1]: 513 RLU | Cefoxitin (RLU) 5.4 ug/mL [1]: 789 RLU | Cefoxitin (RLU) 1.8 ug/mL [2]: 1711 RLU | Cefoxitin (RLU) 3.6 ug/mL [2]: 1623 RLU | Cefoxitin (RLU) 5.4 ug/mL [2]: 1172 RLU | Cefoxitin (RLU) 1.8 ug/mL [3]: 3572 RLU | Cefoxitin (RLU) 3.6 ug/mL [3]: 1469 RLU | Cefoxitin (RLU) 5.4 ug/mL [3]: 1438 RLU | Cefoxitin (RLU) 1.8 ug/mL [4]: 900 RLU | Cefoxitin (RLU) 3.6 ug/mL [4]: 1068 RLU | Cefoxitin (RLU) 5.4 ug/mL [4]: 948 RLU | Cefoxitin (RLU) 1.8 ug/mL [5]: 3630 RLU | Cefoxitin (RLU) 3.6 ug/mL [5]: 4720 RLU | Cefoxitin (RLU) 5.4 ug/mL [5]: 4597 RLU | Cefoxitin (RLU) 1.8 ug/mL [6]: 6254 RLU | Cefoxitin (RLU) 3.6 ug/mL [6]: 3843 RLU | Cefoxitin (RLU) 5.4 ug/mL [6]: 3381 RLU | Cefoxitin (RLU) 1.8 ug/mL [7]: 7571 RLU | Cefoxitin (RLU) 3.6 ug/mL [7]: 7693 RLU | Cefoxitin (RLU) 5.4 ug/mL [7]: 5263 RLU | Cefoxitin (RLU) 1.8 ug/mL [8]: 13210 RLU | Cefoxitin (RLU) 3.6 ug/mL [8]: 7193 RLU | Cefoxitin (RLU) 5.4 ug/mL [8]: 6922 RLU
